Source: paper PMC5663395, “Chemical Validation of Methionyl-tRNA Synthetase as a Druggable Target in Leishmania donovani” (ACS Infectious Diseases, 2017)

Assays:
[1] = tested on: protein synthesis in human HeLa cell extract; test: HeLa in vitro translation (GFP expression in cell extract); type: biochemical; conditions: 100 μM
Experimental: page 27: When test compounds were to be screened, the compound of interest (solubilised in 100% DMSO) was dispensed into assay plates using an Echo® 550 (Labcyte) before L. tarentolae extract and eGFP template DNA were added to assay wells as described above. The reaction was run at room temperature for 120 min before eGFP fluorescence intensity was measured. IC50 curve fitting was undertaken in GraFit version 6.0 (Erithacus Software) using a four-parameter logistic dose-response curve (equation 6), with s the slope. […] GFP expression was monitored over time using a BMG PheraStar plate reader (Excitation 485 nm; Emission 520 nm). When testing DDD806905 and the positive control compound cycloheximide, compounds (solubilised in 100% DMSO) were dispensed into assay plates using an Echo® 550 (Labcyte) before HeLa extract, accessory proteins, reaction mix and GFP template DNA were added to assay wells and GFP expression monitored as described above. Mitochondrial protein synthesis assay The effect of DDD806905 on mitochondrial protein synthesis was determined by BioDuro using the MitoBiogenesisTM In-Cell ELISA Kit (Abcam). […] In the assay the levels of SDH-A and COX-1 are measured in H9C2 cells. These are normalised to DMSO treated cells (vehicle) and then the ratio of normalised SDH-A over COX-1 is calculated. […]

[2] = Plasma protein binding, equilibrium dialysis, human plasma; type: in vitro ADME; conditions: read-out: fu (unbound fraction)
Experimental: which gave the best fit to the data was then recorded as the logP. Using the logP and an experimentally determined pKa (see above), the software generated a lipophilicity plot showing changes in the logD with increasing pH and from this plot a logD7.3 and logD5.6 values were recorded.
Plasma Protein Binding Determination
A 96-well equilibrium dialysis apparatus was used to determine the free fraction in plasma for DDD806905 (HT Dialysis LLC, Gales Ferry, CT). Membranes (12-14 kDA cut-off) were conditioned in deionised water for 60 minutes, followed by conditioning in 80:20 deionised water:ethanol for 20 minutes, and then rinsed in isotonic buffer before use. Female CD1 mouse plasma or human plasma was removed from the freezer and allowed to thaw on the day of experiment. Thawed plasma was then centrifuged (Allegra X12-R, Beckman Coulter, USA), spiked with test compound (final concentration 10 μg/ml), and 150 μL aliquots (n=6 replicate determinations) loaded into the 96-well equilibrium dialysis plate. […] All samples were analysed by UPLC-MS/MS on a Quattro Premier XE Mass Spectrometer (Waters Corporation, USA).
The unbound fraction (fu) was determined as the ratio of the peak area in buffer to that in plasma. […]

THP-1 lysosomes = test: Lysosomotropism assay (LysoTracker Red competition); type: cell-based, human; conditions: PMA-differentiated THP-1 cells, 30 min
Experimental: calculated, both in terms of pEC50 values. MIC (minimum inhibitory concentration) values are defined as the lowest concentration tested at which maximal inhibition is reached.
THP-1 cells were differentiated in 96-well plates with PMA as described above. Following differentiation the cells were treated for 30 min with dose-response curves of test compounds in presence of 100 nM LysoTracker Red DND-99 (Thermo Fisher) and 5 µg/ml Hoechst 33342. Next cells were washed 3 times with Hanks Buffered Saline Solution (Gibco) and imaged on a Perkin Elmer Operetta system. An image analysis algorithm to measure mean Lysotracker Red DND-99 intensity per cell was developed in Columbus. Mean Intensity was normalised using a no dye control (100% effect) and DMSO treated wells stained with Lysotracker Red DND-99 (0% effect control). Dose-response curves were fitted for the test compounds using a four-parameter equation (equation 5 above) and constrained to 0 and 100% where necessary.
To measure the pKa of DDD806905, a fast UV-metric method was performed using a Sirius T3 instrument (Sirius Analytical, U.K.). The calculation of the pKa was determined using the Sirius T3 refine software (Sirius Analytical, U.K.). In brief, the UV-metric pKa method is based on measuring pH during an acid-base titration and monitoring UV absorbance shift. The ionisation curve (Bjerrum curve) was then used to determine the pH where exactly 50 % of neutral and 50 % of ionised species was present. DDD806905 must be fully dissolved throughout the titration and so the titration is set to start at the pH where DDD806905 is in its fully ionised state. The appearance of precipitate was monitored throughout the experiment by a turbidity sensing device. […] The pKas of DDD806905 was determined at the pH where there was maximal change in UV absorbance with respect to pH. […]
LogD7.4 values were quantified using a Sirius T3 instrument (Sirius Analytical, U.K.). […] The instrument software calculated the pH of each data point using mass and charge balance equations and then fitted this theoretical data to the experimental data. […]

[3] = Mouse pharmacokinetics integrated in efficacy study (blood levels); conditions: female, BALB/c, whole blood, po, 50 mg/kg; for AUC(0-t): AUC(0-8h); for AUC(0-t) / Cmax: infected mice, 50 mg/kg oral; for Cmax: Cmax in blood

Cl.Cl.O=c1nc(NCCCNCc2cc3c(Cl)cc(Cl)cc3[nH]2)[nH]c2ccccc12 [DDD806905, 2-((3-(((4,6-dichloro-1H-indol-2-yl)methyl)amino)propyl)amino)quinazolin-4(1H)-one dihydrochloride]
inhibition of in vitro translation in HeLa cell extract [1]: no inhibition | fraction unbound at 5 h, 10 μg/ml [2]: 0.007 | competition with lysotracker red accumulation in THP-1 lysosomes (THP-1 lysosomes): did compete with lysotracker red accumulation | Tmax [3]: 2 h | AUC(0-t) ([3]; day 1): 15800 ng·h/mL | AUC(0-t) ([3]; day 10): 23300 ng·h/mL | Cmax ([3]; first dose day 1): 2600 ng/mL | Cmax ([3]; first dose day 10): 3200 ng/mL
